Experimental data published in patent US11872221B2, “Treating untreated or treatment-resistant diabetes with glucokinase activator” (HUA Medicine (Shanghai) Ltd., priority 2020, dated 2024).
Like-named read-outs stand apart in the source and are kept apart here.

How the values were obtained:
Format in all cases: in vivo, human
C-peptide = experiment: Oral glucose tolerance test, C-peptide response (serum); conditions: for C-peptide CEmax, Mean (SD): baseline corrected, OGTT 75 g glucose 30 min after dose, T2DM subjects, sitagliptin 100 mg QD, dorzagliatin 75 mg BID; for C-peptide AUEC0-4h, GMR (%) / C-peptide CEav, GMR (%) / C-peptide CEmax, GMR (%): printed in the monotherapy column, apparently combination vs that monotherapy
Description: (§1) This phase I study accessed the pharmacokinetic interaction between dorzagliatin and sitagliptin in T2DM subjects. This study also evaluated the safety and tolerability of dorzagliatin with simultaneous administration of sitagliptin in T2DM subjects. Moreover, this study accessed the pharmacodynamic responses of glucose, GLP-1, glucagon, insulin, and C-peptide following dorzagliatin, sitagliptin, or simultaneous administration of dorzagliatin and sitagliptin in T2DM subjects.
(§2) Study drugs are each taken 60 (±5) min prior to meals.
(§3) Subjects consumed a 75-gram glucose solution 30 min following study drug dose administration on Days 5, 10 and 15 in lieu of breakfast. Pharmacodynamic (PD) responses were evaluated by measuring GLP-1 and glucagon levels in plasma, and glucose, insulin, and C-peptide in serum within 60 min prior to oral glucose intake and 0.5, 1, 1.5, 2, 2.5, 3 and 4 h after oral glucose intake.

glucose = experiment: Oral glucose tolerance test, glucose response (serum); conditions: for Glucose AUEC0-4h, Mean (SD) / Glucose CEav, Mean (SD) / Glucose CEmax, Mean (SD): baseline corrected, OGTT 75 g glucose 30 min after dose, T2DM subjects, sitagliptin 100 mg QD, dorzagliatin 75 mg BID; for Glucose AUEC0-4h, GMR (%) / Glucose CEav, GMR (%) / Glucose CEmax, GMR (%): printed in the monotherapy column, apparently combination vs that monotherapy
Description: as §1, §2, §3

[1] = Phase 1 drug-drug interaction study, plasma pharmacokinetics of dorzagliatin and sitagliptin; conditions: for AUC(0-t) / Cmax: human, plasma, oral, T2DM subjects
Description: as §1, §2
Blood samples for the determination of dorzagliatin and sitagliptin concentrations and corresponding pharmacokinetic (PK) analysis were collected on Days 5, 10 and 15: pre-dose (within 30 min prior to dosing), and 0.25, 0.5, 1, 1.5, 2, 3, 4, 6, 8, 10, 12, 18, and 24 h post dose.
Dorzagliatin was provided as a film-coated tablets in 75 mg strength for oral administration 60 min prior to a meal. Sitagliptin was provided as JANUVIA® 100 mg tablets for oral administration 60 min prior to a meal. The total duration of participation in the study for each subject was about 59 days (up to 28-day screening period, 12-day run-in period, and 19-day in-clinic period).
The plasma concentration-time data for dorzagliatin and sitagliptin were analyzed using noncompartmental methods to calculate pharmacokinetic parameters.

insulin = experiment: Oral glucose tolerance test, insulin response (serum); conditions: printed in the monotherapy column; apparently combination vs that monotherapy
Description: as §1, §2, §3

SMILES	C-peptide CEmax, Mean (SD) (C-peptide) [ng/mL]	C-peptide AUEC0-4h, GMR (%) (C-peptide)	C-peptide CEav, GMR (%) (C-peptide)	C-peptide CEmax, GMR (%) (C-peptide)	Glucose AUEC0-4h, Mean (SD) (glucose)	Glucose CEav, Mean (SD) (glucose)	Glucose CEmax, Mean (SD) (glucose)	Glucose AUEC0-4h, GMR (%) (glucose)	Glucose CEav, GMR (%) (glucose)	Glucose CEmax, GMR (%) (glucose)	Insulin AUEC0-4h, GMR (%) (insulin)	Insulin CEav, GMR (%) (insulin)	Insulin CEmax, GMR (%) (insulin)	also measured
CC(C)C[C@@H](C(=O)Nc1ccn(C[C@@H](O)CO)n1)N1CC(Oc2ccccc2Cl)=CC1=O [Dorzagliatin, (S)-2-(4-(2-chlorophenoxy)-2-oxo-2,5-dihydro-1H-pyrrol-1-yl)-N-(1-((R)-2,3-dihydroxypropyl)-1H-pyrazol-3-yl)-4-methylpentanamide]	4.2	143	143	145	339 (124) h · mg/dL	84.8 (31) mg/dL	163 (39) mg/dL	69	69	83	159	159	146	Percent ratio of geometric means (GMR) of dorzagliatin Cmax ([1]; dorzagliatin in combination with sitagliptin vs dorzagliatin alone, 90% CI: 87, 120): 102%; Percent GMR of dorzagliatin AUC0-24h ([1]; dorzagliatin in combination with sitagliptin vs dorzagliatin alone, 90% CI: 96, 105): 100%; AUC(0-t) ([1]; dorzagliatin 75 mg BID alone (Day 15), read-out: Least squares geometric mean AUC0-24h of plasma dorzagliatin): 6570 ng·h/mL; Cmax ([1]; dorzagliatin 75 mg BID alone (Day 15), read-out: Least squares geometric mean Cmax of plasma dorzagliatin): 814 ng/mL; AUC(0-t) ([1]; dorzagliatin 75 mg BID in combination with sitagliptin 100 mg QD (Day 10), read-out: Least squares geometric mean AUC0-24h of plasma dorzagliatin): 6590 ng·h/mL; Cmax ([1]; dorzagliatin 75 mg BID in combination with sitagliptin 100 mg QD (Day 10), read-out: Least squares geometric mean Cmax of plasma dorzagliatin): 833 ng/mL
N[C@@H](CC(=O)N1CCn2c(nnc2C(F)(F)F)C1)Cc1cc(F)c(F)cc1F [Sitagliptin, (R)-3-amino-1-(3-(trifluoromethyl)-5,6-dihydro-[1,2,4]triazolo[4,3-a]pyrazin-7(8H)-yl)-4-(2,4,5-trifluorophenyl)butan-1-one]	5.1	119	119	125	378 (88) h · mg/dL	94.5 (22) mg/dL	165 (35) mg/dL	65	65	87	110	110	125	AUC(0-t) ([1]; sitagliptin 100 mg QD alone (Day 5), read-out: Least squares geometric mean AUC0-24h of plasma sitagliptin): 2940 ng·h/mL; Cmax ([1]; sitagliptin 100 mg QD alone (Day 5), read-out: Least squares geometric mean Cmax of plasma sitagliptin): 410 ng/mL; AUC(0-t) ([1]; sitagliptin 100 mg QD in combination with dorzagliatin 75 mg BID (Day 10), read-out: Least squares geometric mean AUC0-24h of plasma sitagliptin): 2720 ng·h/mL; Cmax ([1]; sitagliptin 100 mg QD in combination with dorzagliatin 75 mg BID (Day 10), read-out: Least squares geometric mean Cmax of plasma sitagliptin): 403 ng/mL; Percent GMR of sitagliptin Cmax ([1]; sitagliptin in combination with dorzagliatin vs sitagliptin alone, 90% CI: 84, 115): 98%; Percent GMR of sitagliptin AUC0-24h ([1]; sitagliptin in combination with dorzagliatin vs sitagliptin alone, 90% CI: 86, 100): 93%
